Assay results from publication PMC4703101 (Chemical research in toxicology, 2015).
Counter-ions that a name gives are not always drawn. Marks after values point to notes of the source that are not given here.

Experiments:
[1] = test system: Liver microsomal P450; assay: Liver microsomal P450 oxidation; format: in vitro ADME, mouse; conditions: for P450 Oxidation: substrate 100 μM (AαC, PhIP, MeIQx), 10 μM (MROD), mean and SD, n ≥3, N.D. = not detected; for levels of metabolism, fold greater than AαC: 100 µM substrate
[2] = test system: Liver microsomal P450; assay: Liver microsomal P450 oxidation; format: in vitro ADME; conditions: Human liver microsome (H112); substrate 100 μM (AαC, PhIP, MeIQx), 10 μM (MROD)
[3] = Pharmacokinetics of plasma AαC and its metabolites after oral gavage of AαC; format: in vivo, mice (C57BL/6 background; WT, LCN, IECN); conditions: for AUC 0-24 h in plasma, fold greater in LCN mice than in WT mice / Cmax in plasma, fold greater in LCN mice than in WT mice / clearance rate, fold lower in LCN mice than in WT mice: for AαC also vs IECN; for AUC0-24h / CL/F / Cmax / Tmax / t1/2 / AUC0-6h / AUC(0-t) / half-life: plasma
[4] = target: Xanthine Dehydrogenase (Mus musculus, UniProt Q00519); assay: Xanthine dehydrogenase assay, liver cytosol; format: in vitro ADME; conditions: WT and LCN liver cytosol
Sequence of Xanthine Dehydrogenase (Q00519 whole entry): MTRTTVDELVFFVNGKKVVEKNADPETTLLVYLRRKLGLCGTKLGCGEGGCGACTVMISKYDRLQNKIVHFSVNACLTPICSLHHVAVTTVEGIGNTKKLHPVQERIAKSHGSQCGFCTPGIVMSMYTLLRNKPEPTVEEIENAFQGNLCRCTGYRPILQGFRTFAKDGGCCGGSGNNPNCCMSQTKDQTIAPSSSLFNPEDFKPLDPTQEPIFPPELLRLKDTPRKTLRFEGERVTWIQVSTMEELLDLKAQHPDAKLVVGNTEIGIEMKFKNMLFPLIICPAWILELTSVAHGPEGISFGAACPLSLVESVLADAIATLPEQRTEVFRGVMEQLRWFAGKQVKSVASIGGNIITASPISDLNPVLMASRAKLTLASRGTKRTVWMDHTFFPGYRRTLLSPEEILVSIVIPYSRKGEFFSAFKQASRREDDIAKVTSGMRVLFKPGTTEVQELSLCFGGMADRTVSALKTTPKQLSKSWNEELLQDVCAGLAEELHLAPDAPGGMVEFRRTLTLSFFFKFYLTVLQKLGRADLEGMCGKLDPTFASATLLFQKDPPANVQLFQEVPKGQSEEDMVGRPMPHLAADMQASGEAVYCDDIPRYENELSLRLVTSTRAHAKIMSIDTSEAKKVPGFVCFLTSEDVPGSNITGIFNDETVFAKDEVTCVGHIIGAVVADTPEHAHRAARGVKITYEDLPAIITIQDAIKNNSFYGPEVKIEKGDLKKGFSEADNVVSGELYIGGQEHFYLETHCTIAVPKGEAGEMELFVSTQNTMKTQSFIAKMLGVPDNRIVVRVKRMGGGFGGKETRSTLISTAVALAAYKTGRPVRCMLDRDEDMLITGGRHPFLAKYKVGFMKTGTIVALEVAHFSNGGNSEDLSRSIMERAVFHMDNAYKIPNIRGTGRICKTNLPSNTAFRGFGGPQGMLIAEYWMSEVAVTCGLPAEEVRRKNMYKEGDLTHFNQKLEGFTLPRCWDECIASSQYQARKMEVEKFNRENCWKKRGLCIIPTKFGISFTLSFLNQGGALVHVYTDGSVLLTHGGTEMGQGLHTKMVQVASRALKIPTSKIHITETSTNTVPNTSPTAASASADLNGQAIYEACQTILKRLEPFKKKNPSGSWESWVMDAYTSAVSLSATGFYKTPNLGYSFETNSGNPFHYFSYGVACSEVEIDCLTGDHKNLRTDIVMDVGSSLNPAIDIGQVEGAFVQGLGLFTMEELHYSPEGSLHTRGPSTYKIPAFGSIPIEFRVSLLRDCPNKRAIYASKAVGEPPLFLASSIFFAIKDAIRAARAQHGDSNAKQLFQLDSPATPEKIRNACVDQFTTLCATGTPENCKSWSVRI

[5] = test system: Flavin monooxygenase (FMO); assay: Microsomal flavin monooxygenase; conditions: WT and LCN liver microsomes
[6] = test system: Aldehyde Oxidase; assay: Aldehyde oxidase assay, liver cytosol; conditions: WT and LCN liver cytosol
[7] = test system: P450 1A2; conditions: human hepatocytes in primary culture pretreated with furafylline; cited from earlier work
[8] = test system: DNA; conditions: cited from earlier work
[9] = test system: DNA; conditions: liver, kidney, colon, and mammary gland of female Cyp1a2-null mice; cited from earlier work
[10] = IECN mice, AαC 13.6 mg/kg oral gavage, mean ± S.D. n=5
[11] = LCN mice, AαC 1.36 mg/kg oral gavage, mean ± S.D. n=5
[12] = LCN mice, AαC 13.6 mg/kg oral gavage, mean ± S.D. n=5
[13] = WT mice, AαC 1.36 mg/kg oral gavage, mean ± S.D. n=5
[14] = WT mice, AαC 13.6 mg/kg oral gavage, mean ± S.D. n=5

Cc1cnc2ccc3c(nc(N)n3C)c2n1 [MeIQx, 2-amino-3,8-dimethylimidaz[4,5-f]quinoxaline]
P450 Oxidation ([1]; LCN mouse liver microsomes): 67 ± 44 pmol/min/mg protein | levels of metabolism, fold greater than AαC ([1]; WT mouse liver microsomes): 3 to 4 fold | P450 Oxidation ([1]; WT mouse liver microsomes): 404 ± 155 pmol/min/mg protein | P450 Oxidation [2]: 1010 ± 155 pmol/min/mg protein

O=C(O)[C@H]1O[C@@H](Nc2ccc3c(n2)[nH]c2ccccc23)[C@H](O)[C@@H](O)[C@@H]1O [AαC-N^2-Glu, N^2-(β-1-glucosidurony1)-2-amino-9H-pyrido[2,3-b]indole]
Cmax and AUC0-24h, fold higher in LCN than in WT mice ([3]; AαC 13.6 mg/kg by gavage, plasma (abstract)): 4-24 fold | AUC 0-24 h in plasma, fold greater in LCN mice than in WT mice ([3]; AαC 13.6 mg/kg oral gavage): ~ 6 fold | Cmax in plasma, fold greater in LCN mice than in WT mice ([3]; AαC 13.6 mg/kg oral gavage): 4.5 fold | clearance rate, fold lower in LCN mice than in WT mice ([3]; AαC 13.6 mg/kg oral gavage): 6.6 fold | AUC0-24h [3, 10]: 150 ± 30.0 ng·h/mL | CL/F [3, 10]: 3180 ± 1031 mL/h | Cmax [3, 10]: 42.4 ± 15.4 ng/mL | Tmax [3, 10]: 1.8 ± 1.2 h | t1/2 [3, 10]: 2.5 ± 2.2 h | AUC0-6h [3, 11]: 195 ±78.7^a h*ng/ml | CL/F [3, 11]: 207 ± 100^a ml/h | Cmax [3, 11]: 74.3 ± 48.6^a ng/ml | t1/2 [3, 11]: 1.5 ± 0.8 h | AUC0-24h [3, 12]: 803 ± 241^a h*ng/ml | CL/F [3, 12]: 543 ± 148^a ml/h | Cmax [3, 12]: 186 ± 85.0^b ng/ml | Tmax [3, 12]: 1.0 ± 0 h | t1/2 [3, 12]: 2.1 ± 0.5 h | AUC0-6h [3, 13]: 40.5 ± 16.6 ng·h/mL | CL/F [3, 13]: 985 ± 372 mL/h | Cmax [3, 13]: 19.2 ± 13.5 ng/mL | t1/2 [3, 13]: 1.4 ± 0.7 h | AUC0-24h [3, 14]: 128 ± 26.8 ng·h/mL | CL/F [3, 14]: 3610 ± 566 mL/h | Cmax [3, 14]: 40.2 ± 9.6 ng/mL | Tmax [3, 14]: 1.0 ± 0 h | t1/2 [3, 14]: 1.5 ± 0.7 h

COc1ccc2nc3ccc(=O)cc-3oc2c1 [MROD, methoxyresorufin]
MROD activity, fold decrease in LCN liver microsomes compared to WT microsomes [1]: greater than 10 fold

Nc1ccc2c(n1)[nH]c1ccccc12 [AαC, 2-Amino-9H-pyrido[2,3-b]indole]
P450 Oxidation ([1]; WT mouse liver microsomes): 103 ± 33 pmol/min/mg protein | AαC metabolism, if present (limit of detection by HPLC-UV) [4]: < 50 pmol/min/mg protein | AαC metabolism, if present (limit of detection by HPLC-UV) [5]: < 50 pmol/min/mg protein | AUC 0-24 h in plasma, fold greater in LCN mice than in WT mice ([3]; AαC 13.6 mg/kg oral gavage): about 20 fold | Cmax in plasma, fold greater in LCN mice than in WT mice ([3]; AαC 13.6 mg/kg oral gavage): 10 fold | clearance rate, fold lower in LCN mice than in WT mice ([3]; AαC 13.6 mg/kg oral gavage): 20 fold | CL/F [3, 10]: 5920 ± 1530 mL/h | CL/F [3, 11]: 884 ± 378^a ml/h | CL/F [3, 12]: 335 ± 146^b ml/h | CL/F [3, 13]: 15300 ± 5690 mL/h | CL/F [3, 14]: 6900 ± 1850 mL/h | AUC(0-t) ([3]; male, C57BL/6, mouse, po, 1.36 mg/kg, AUC0-6h, LCN mice, AαC 1.36 mg/kg oral gavage, mean ± S.D. n=5): 45.2 ± 16.9 ng·h/mL | AUC(0-t) ([3]; male, C57BL/6, mouse, po, 1.36 mg/kg, AUC0-6h, WT mice, AαC 1.36 mg/kg oral gavage, mean ± S.D. n=5): 2.5 ± 1.3 ng·h/mL | Cmax ([3]; male, C57BL/6, mouse, po, 1.36 mg/kg, Cmax, LCN mice, AαC 1.36 mg/kg oral gavage, mean ± S.D. n=5): 21.8 ± 13.6 ng/mL | Cmax ([3]; male, C57BL/6, mouse, po, 1.36 mg/kg, Cmax, WT mice, AαC 1.36 mg/kg oral gavage, mean ± S.D. n=5): 1.4 ± 0.9 ng/mL | half-life ([3]; male, C57BL/6, mouse, po, 1.36 mg/kg, t1/2, LCN mice, AαC 1.36 mg/kg oral gavage, mean ± S.D. n=5): 1.4 ± 0.5 h | half-life ([3]; male, C57BL/6, mouse, po, 1.36 mg/kg, t1/2, WT mice, AαC 1.36 mg/kg oral gavage, mean ± S.D. n=5): 1.7 ± 0.9 h | Tmax ([3]; male, C57BL/6, mouse, po, 13.6 mg/kg): 1 h | AUC(0-t) ([3]; male, C57BL/6, mouse, po, 13.6 mg/kg, AUC0-24h, IECN mice, AαC 13.6 mg/kg oral gavage, mean ± S.D. n=5): 68.4 ± 18.2 ng·h/mL | AUC(0-t) ([3]; male, C57BL/6, mouse, po, 13.6 mg/kg, AUC0-24h, LCN mice, AαC 13.6 mg/kg oral gavage, mean ± S.D. n=5): 1360 ± 595 ng·h/mL | AUC(0-t) ([3]; male, C57BL/6, mouse, po, 13.6 mg/kg, AUC0-24h, WT mice, AαC 13.6 mg/kg oral gavage, mean ± S.D. n=5): 57.6 ± 14.2 ng·h/mL | Cmax ([3]; male, C57BL/6, mouse, po, 13.6 mg/kg, Cmax, IECN mice, AαC 13.6 mg/kg oral gavage, mean ± S.D. n=5): 25.1 ± 12.4 ng/mL | Cmax ([3]; male, C57BL/6, mouse, po, 13.6 mg/kg, Cmax, LCN mice, AαC 13.6 mg/kg oral gavage, mean ± S.D. n=5): 272 ± 85.9 ng/mL | Cmax ([3]; male, C57BL/6, mouse, po, 13.6 mg/kg, Cmax, WT mice, AαC 13.6 mg/kg oral gavage, mean ± S.D. n=5): 26.5 ± 8.6 ng/mL | half-life ([3]; male, C57BL/6, mouse, po, 13.6 mg/kg, t1/2, IECN mice, AαC 13.6 mg/kg oral gavage, mean ± S.D. n=5): 3.9 ± 2.2 h | half-life ([3]; male, C57BL/6, mouse, po, 13.6 mg/kg, t1/2, LCN mice, AαC 13.6 mg/kg oral gavage, mean ± S.D. n=5): 2.8 ± 0.3 h | half-life ([3]; male, C57BL/6, mouse, po, 13.6 mg/kg, t1/2, WT mice, AαC 13.6 mg/kg oral gavage, mean ± S.D. n=5): 3 ± 2.4 h | P450 Oxidation [2]: 820 ± 60 pmol/min/mg protein | AαC metabolism, if present (limit of detection by HPLC-UV) [6]: < 50 pmol/min/mg protein

Cc1nc2c([nH]1)c(=O)n(C)c(=O)n2Cc1ccco1 [furafylline]
inhibition of dG-C8-AαC adduct formation [7]: only partially inhibited

Cn1c(N)nc2ncc(-c3ccccc3)cc21 [PhIP, 2-amino-1-methyl-6-phenylimidazo[4,5-b]pyridine]
levels of metabolism, fold greater than AαC ([1]; WT mouse liver microsomes): 3 to 4 fold | P450 Oxidation ([1]; WT mouse liver microsomes): 362 ± 120 pmol/min/mg protein | PhIP-DNA adduct levels in liver of RCN compared to WT mice [8]: unchanged | P450 Oxidation [2]: 1440 ± 280 pmol/min/mg protein | levels of DNA adducts in Cyp1a2-null vs WT mice [9]: ten-fold lower

Nc1nc2[nH]c3ccccc3c2cc1OS(=O)(=O)O [AαC-3-OSO3H, 2-amino-9H-pyrido[2,3-b]indol-3-yl sulfate]
Cmax, fold higher in LCN mice than in WT mice ([3]; AαC 1.36 mg/kg oral gavage): ~2 fold | AUC 0-24 h in plasma, fold greater in LCN mice than in WT mice ([3]; AαC 13.6 mg/kg oral gavage): about 1.6 fold | AUC0-24h [3, 10]: 5310 ± 1650 ng·h/mL | CL/F [3, 10]: 77.0 ± 20.3^c ml/h | Cmax [3, 10]: 913 ± 248 ng/mL | Tmax [3, 10]: 1.8 ± 1.2 h | t1/2 [3, 10]: 2.8 ± 0.2 h | AUC0-6h [3, 11]: 438 ± 118^a h*ng/ml | CL/F [3, 11]: 76.0 ± 39.2^b ml/h | Cmax [3, 11]: 177 ± 73.0^a ng/ml | Tmax [3, 11]: 1.0 ± 0 h | t1/2 [3, 11]: 2.5 ± 1.7 h | AUC0-24h [3, 12]: 6140 ± 1330^b h*ng/ml | CL/F [3, 12]: 64.3 ± 13.6^a ml/h | Cmax [3, 12]: 586 ± 128 ng/mL | Tmax [3, 12]: 3.5 ± 2.3 h | t1/2 [3, 12]: 3.1 ± 0.2 h | AUC0-6h [3, 13]: 165.6 ± 47.6 ng·h/mL | CL/F [3, 13]: 180 ± 140 mL/h | Cmax [3, 13]: 74.6 ± 31.5 ng/mL | Tmax [3, 13]: 1.0 ± 0 h | t1/2 [3, 13]: 5.9 ± 6.1 h | AUC0-24h [3, 14]: 3700 ± 911 ng·h/mL | CL/F [3, 14]: 107 ± 27.9 mL/h | Cmax [3, 14]: 669 ± 251 ng/mL | Tmax [3, 14]: 1.8 ± 1.3 h | t1/2 [3, 14]: 3.4 ± 1.2 h
